In US9198415B2, “Plant irrigation methods” (Syngenta Participations AG, priority 2010, dated 2015):
Marks after values point to notes of the source that are not given here.

Experiments:
Format in all cases: in vivo
[1] = test system: Corn plants; test: Corn in 55-gal lysimeter containers, sub-surface chemigation, deficit water conditions, yield and root architecture; details: maximum labeled rate; for Yield (% difference from UTC): sub-surface chemigation at V3/V4, deficit water (50% plant-available water), 12 plants; for Relative number of fine roots (% difference from UTC): sub-surface chemigation at V3/V4, deficit water, measured within 2 weeks of harvest by digital imaging
Excerpt: In this experiment, standardized growth conditions were applied across all corn treatments including: soil-water availability, soil texture and composition, soil chemical and physical properties, meteorological and environmental parameters, and plant nutrition in a greenhouse. No indication of plant disease or pest damage was observed over the course of the study and no pest management program was necessary. A homogeneous sand-organic matter soil mixture (0.18% organic matter) was used as the growth medium in 55-gal containers. These containers were used as a weighing lysimeter, where daily changes in system weight were used to calculate plant transpiration. Four corn plants were grown in each 55-gal container. Three 55-gal containers (12 plants total) made up each treatment. All irrigation and chemical treatments were applied via sub-surface irrigation. Chemical treatments consisted of: azoxystrobin (Quadris), paclobutrazol (Trimmit), trinexapac-ethyl (Moddus), and propiconazole (Tilt) at maximum labeled rates.
Corn plants were grown from seed and transplanted in the 55-gal drums approximately 14 days after planting. Uniform adequate irrigation was applied up to growth stage V3/V4 to ensure plant establishment. Chemical treatment applications were applied at growth stage V3/V4 via sub-surface chemigation. At stage V3/V4, irrigation was decreased to replicate deficit water conditions across all treatments for the remainder of the study period. Irrigation was managed daily to maintain 50% plant-available water. Visual signs of abiotic plant stress were observed approximately 30 days after chemical application. All corn plants were grown to yield and cobs were harvested when kernels were uniformly dry (15% moisture content). Root architecture, specifically relative number of fine roots, was measured at within 2 weeks of harvest using a digital imaging technique. Fine roots are related to water uptake productivity, which is directly tied to the ability of the plant to access soil-water under stress.
Effects of the chemical treatments via sub-surface irrigation on yield and root architecture were specifically documented. The effects are herein reported as the percentage increase compared to the untreated check (12 plants in three containers). […] Azoxystrobin, paclobutrazol, and trinexapac-ethyl were statistically different from the control (P values: <0.001 at the 95th percentile confidence interval).

[2] = test system: Soybean plants; test: Soybean plants in pouches, drench application, drought stress and rewatering, shoot dry weight; details: for Total Shoot Weight: 6 days drought, shoot dry weight 2 days after rewatering, 40 plants, untreated check 4.3 g
Procedure: Soybean plants were grown in pouches (in filter paper bags) and either BION or Thiamethoxam was applied to the water at different rates (see FIG. 2). Sowing and drench application of the compounds occurred simultaneously. After 8 days of optimal growth, the pouches went dry and plants were grown under drought stress conditions for 6 days. At the end of the drought period, plants were rewatered and shoot dry weight was determined 2 days later (Table 2). In total, 40 plants per treatment and 40 untreated check plants were assessed.

[3] = test system: Soybean plants; test: Soybean plants in pouches, drench application, severe drought stress, qualitative ranking of physiological state; details: for Plant physiological state: Desiccated (number of plants in %) / Plant physiological state: Slightly withered (number of plants in %) / Plant physiological state: Strongly withered (number of plants in %) / Plant physiological state: Turgescent (number of plants in %): evaluation 14 days after application
Procedure: Soybean plants were grown in pouches (in filter paper bags), and 100 plants each were treated with BION at 3 rates (60, 20, 2 ppm), added to the drench water. Sowing and drench application of BION occurred simultaneously. After 8 days of optimal growth, the pouches went dry and plants were grown for several days under severe drought stress conditions until evaluation (14 days after application). A qualitative assessment was carried out, ranking the plants behaviour into four categories corresponding to four different physiological states (turgescent, slightly withered, strongly withered and desiccated) (Table 1)

[4] = 2 ppm in drench water, severe drought
[5] = 20 ppm in drench water, severe drought
[6] = 60 ppm in drench water, severe drought

CCOC(=O)C1CC(=O)C(=C(O)C2CC2)C(=O)C1 (stereo not drawn) [Trinexapac-ethyl]
Yield (% difference from UTC) [1]: 15.6† % | Relative number of fine roots (% difference from UTC) [1]: 34.3† %

CN1COCN(Cc2cnc(Cl)s2)/C1=N\[N+](=O)[O-] [TMX]
Total Shoot Weight ([2]; 3 ppm in water): 4.6 g | Total Shoot Weight ([2]; 12 ppm in water): 5.8 g

CSC(=O)c1cccc2nnsc12 [ASM, S-methyl benzo[1,2,3]thiadiazole-7-carbothioate]
Plant physiological state: Desiccated (number of plants in %) [3, 4]: 0.0% | Plant physiological state: Slightly withered (number of plants in %) [3, 4]: 70.0% | Plant physiological state: Strongly withered (number of plants in %) [3, 4]: 5.0% | Plant physiological state: Turgescent (number of plants in %) [3, 4]: 25.0% | Plant physiological state: Desiccated (number of plants in %) [3, 5]: 5.3% | Plant physiological state: Slightly withered (number of plants in %) [3, 5]: 7.9% | Plant physiological state: Strongly withered (number of plants in %) [3, 5]: 2.6% | Plant physiological state: Turgescent (number of plants in %) [3, 5]: 84.2% | Plant physiological state: Desiccated (number of plants in %) [3, 6]: 0.0% | Plant physiological state: Slightly withered (number of plants in %) [3, 6]: 15.2% | Plant physiological state: Strongly withered (number of plants in %) [3, 6]: 0.0% | Plant physiological state: Turgescent (number of plants in %) ([3]; 60 ppm in drench water, severe drought, 100 plants): 84.8% | Treated plants still fully turgescent at the end of the drought period ([3]; dose not stated, severe drought): more than 80% | Behaviour of treated plants after severe drought compared to untreated check ([3]; qualitative): behaved much better after severe drought | Total Shoot Weight ([2]; 5 ppm in water): 4.1 g | Total Shoot Weight ([2]; 15 ppm in water): 5.6 g | Health of treated plants after drought compared to untreated check ([2]; qualitative, FIG. 1): behaved extremely healthy

CO/C=C(/C(=O)OC)c1ccccc1Oc1cc(Oc2ccccc2C#N)ncn1 [Azoxystrobin]
Yield (% difference from UTC) [1]: 12.5† % | Relative number of fine roots (% difference from UTC) [1]: 37.3† %

CCCC1COC(Cn2cncn2)(c2ccc(Cl)cc2Cl)O1 (stereo not drawn) [Propiconazole]
Yield (% difference from UTC) [1]: 3.3% | Relative number of fine roots (% difference from UTC) [1]: 39.4† %

CC(C)(C)[C@@H](O)[C@@H](Cc1ccc(Cl)cc1)n1cncn1 (racemic) [Paclobutrazol, (2RS,3RS)-1-(4-chlorophenyl)-4,4-dimethyl-2-(1H-1,2,4-triazol-1-yl)pentan-3-01]
Yield (% difference from UTC) [1]: 16.6† % | Relative number of fine roots (% difference from UTC) [1]: 70.0† %
